Counter-ions that a name gives are not always drawn.

55 molecules from patent publication US11912679B2, “Aryl alkynamide derivatives” (Astellas Pharma, Inc., priority 2022, dated 2024) can be followed below.

This test concerns IRF pathway of THP-1. Kind of test: Test on the activity of IRF pathway of THP-1 (THP1-Dual reporter cells stimulated with 2'3'-cGAMP). It counts as cell-based. As to conditions: Homo sapiens, PMA-treated, 2'3'-cGAMP 5 ug/mL, QUANTI-Luc readout, read-out: IC50 of inhibition of the activity of IRF pathway. On the procedure:
0.3 uM of PMA (phorbol myristate acetate, SIGMA, P1585) was added to THP1-Dual™ cells (NF-κB-SEAP IRF-Luc Reporter Monocytes, Invivogen, thpd-nfis), and the cells were cultured at 37° C. for 1 day in RPMI1640 with 10% Fetal Bovine Serum (FBS). A compound with a known concentration was added, and the cells were incubated at room temperature for 1 hour. Mammalian (non-canonical) CDN, cyclic [G(2′,5′)pA(3′,5′)p] (2′3′-cGAMP, Invivogen, tlrl-nacga23) was added to a final concentration of 5 ug/mL, and the cells were cultured at 37° C. On the following day, QUANTI-Luc™ (Secreted luciferase detection medium, Invivogen, rep-qlc) was added to the culture solution and the activity of IRF pathway was measured using a microplate reader. The inhibition ratio at each concentration was determined, where the activity of IRF pathway with no addition of the test compound or 2′3′-cGAMP was defined as 100% inhibition and the activity of IRF pathway with no addition of the test compound and with addition of 2′3′-cGAMP was defined as 0% inhibition. The IC50 value was calculated by sigmoid […] model non-linear regression analysis.

For the molecule `O=C(C#Cc1ccc(-c2ccccc2)c(C(F)(F)F)c1)N[C@H]1C[C@@H](O)[C@@H](O)C1` [Example 106, N-[(1r,3R,4S)-3,4-dihydroxycyclopentyl]-3-[2-(trifluoromethyl)[1,1′-biphenyl]-4-yl]prop-2-ynamide], the 50% inhibitory concentration (IC50) was 358 nM.

For the molecule `CN1CCN(C(=O)C#Cc2ccc(-c3ccccc3)cc2)CC1` [Example 19], the concentration for half-maximal inhibition (IC50) was 1390 nM.

`NC(=O)[C@H](CO)NC(=O)C#Cc1ccc(-c2ccccc2)c(C(F)(F)F)c1` [Example 45, N^2-{3-[2-(trifluoromethyl)[1,1′-biphenyl]-4-yl]prop-2-ynoyl}-L-serinamide]: the IC50 was determined as 89 nM.

As for `CN(CC(N)=O)C(=O)C#Cc1ccc(-c2ccccc2)c(C(F)(F)F)c1` [Example 29], the IC50 came to 153 nM.

For `NC(=O)[C@@H]1CCN(C(=O)C#Cc2ccc(-c3ccccc3)c(C(F)(F)F)c2)C1` [Example 20, (3R)-1-{3-[2-(trifluoromethyl)[1,1′-biphenyl]-4-yl]prop-2-ynoyl}pyrrolidine-3-carboxamide], the IC50 was found to be 244 nM.

As for `O=C(C#Cc1ccc(-c2ccccc2OC(F)(F)F)c(C(F)(F)F)c1)NCCO` [Example 69], the IC50 is 190 nM.

Take `O=C(C#Cc1ccc(-c2ccccc2OC(F)(F)F)c(C(F)(F)F)c1)N[C@@H]1COC[C@@H]1O` [Example 72]: the IC50 was 1210 nM.

For the molecule `O=C(C#Cc1ccc(-c2ccccc2C(F)(F)F)c(Cl)c1)N1C[C@@H](O)[C@@H](O)C1` [Example 109], the half-maximal inhibitory concentration (IC50) amounted to 112 nM.

In the case of `CC(C)N1CCN(C(=O)C#Cc2ccc(-c3ccccc3)c(C(F)(F)F)c2)CC1` [Example 15], the half-inhibitory concentration (IC50) was found to be 237 nM.

On to `O=C(C#Cc1ccc(-c2ccccc2OC(F)(F)F)c(C(F)(F)F)c1)NC[C@@H](O)CO` [Example 74], for which the 50% inhibitory concentration (IC50) was 48 nM.

For `C#CCOc1ccccc1-c1ccc(C#CC(=O)N2C[C@@H](O)[C@@H](O)C2)cc1C(F)(F)F` [Example 129, 1-[(3R,4S)-3,4-dihydroxypyrrolidin-1-yl]-3-{2′-[(prop-2-yn-1-yl)oxy]-2-(trifluoromethyl)[1,1′-biphenyl]-4-yl}prop-2-yn-1-one], the IC50 was determined as 242 nM.

Regarding `CC(C)Oc1cc(C#CC(=O)N2C[C@@H](O)[C@@H](O)C2)ccc1-c1ccccc1C(F)(F)F` [Example 126], the half-inhibitory concentration (IC50) was found to be 372 nM.

Regarding `O=C(C#Cc1ccc(-c2ccc(OC(F)F)cc2)c(C(F)(F)F)c1)N1C[C@@H](O)[C@H](O)C1` [Example 61], the IC50 was 611 nM.

Regarding `O=C(C#Cc1ccc(-c2ccccc2)c(C(F)(F)F)c1)N(CCO)C1CC1` [Example 52], the IC50 was determined as 442 nM.

As to `O=C(C#Cc1ccc(-c2ccccc2OC(F)(F)F)c(C(F)(F)F)c1)NC[C@H](O)CO` [Example 75], the 50% inhibitory concentration (IC50) stood at 73 nM.

On to `O=C(C#Cc1ccc(-c2ccccc2)c(C(F)(F)F)c1)N[C@H]1COC[C@H]1O` [Example 60], for which the IC50 was determined as 528 nM.

Regarding `NC(=O)c1cc(C#CC(=O)N2C[C@@H](O)[C@@H](O)C2)ccc1-c1ccccc1C(F)(F)F` [Example 119, 4-{3-[(3R,4S)-3,4-dihydroxypyrrolidin-1-yl]-3-oxoprop-1-yn-1-yl}-2′-(trifluoromethyl)[1,1′-biphenyl]-2-carboxamide], the half-inhibitory concentration (IC50) was found to be 5260 nM.

Regarding `COc1ncc(-c2ccc(C#CC(=O)N3C[C@@H](O)[C@@H](O)C3)cc2C(F)(F)F)cn1` [Example 122], the IC50 is 3100 nM.

On to `NS(=O)(=O)c1cccc(NC(=O)C#Cc2ccc(-c3ccccc3)c(C(F)(F)F)c2)c1` [Example 50], for which the concentration for half-maximal inhibition (IC50) worked out at 48 nM.

In the case of `O=C(O)CCCN1CCN(C(=O)C#Cc2ccc(-c3ccccc3)c(C(F)(F)F)c2)CC1` [Example 93], the IC50 stood at 919 nM.

Consider `CN1CCN(C(=O)C#Cc2cccc(-c3ccccc3)c2)CC1` [Example 2], for which the IC50 was found to be 1090 nM.

Take `O=C(C#Cc1ccc(-c2ccccc2)c(C(F)(F)F)c1)NC(CO)CO` [Example 39]: the half-inhibitory concentration (IC50) was 351 nM.

Turning to `O=C(C#Cc1ccc(-c2ccccc2)c(CN2CCCCC2)c1)N(C[C@@H](O)CO)c1ccccc1` [Example 96, N-[(2R)-2,3-dihydroxypropyl]-N-phenyl-3-{2-[(piperidin-1-yl)methyl][1,1′-biphenyl]-4-yl}prop-2-ynamide], the IC50 was determined as 80 nM.

In the case of `O=C(C#Cc1ccc(-c2ccccc2)c(O)c1)N1C[C@@H](O)[C@@H](O)C1` [Example 121], the IC50 stood at 7780 nM.

On to `O=C(C#Cc1ccc(-c2ccccc2)c(CN2CCOCC2)c1)NC[C@H](O)CO` [Example 97], for which the half-inhibitory concentration (IC50) came out at 4610 nM.

For the molecule `CN[C@@H]1CCN(C(=O)C#Cc2ccc(-c3ccccn3)c(C(F)(F)F)c2)C1` [Example 127, 1-[(3R)-3-(methylamino)pyrrolidin-1-yl]-3-[4-(pyridin-2-yl)-3-(trifluoromethyl)phenyl]prop-2-yn-1-one], the half-inhibitory concentration (IC50) was found to be 529 nM.

Regarding `CN1CCN(C(=O)C#Cc2cn(-c3ccccc3)nc2C(F)(F)F)CC1` [Example 7], the IC50 amounted to 2060 nM.

In the case of `O=C(C#Cc1ccc(-c2ccccc2)c(C(F)(F)F)c1)N1CC(O)(CO)C1` [Example 9], the IC50 turned out to be 116 nM.

With `O=C(C#Cc1cnc(-c2ccc(C(F)(F)F)cc2)c(C(F)(F)F)c1)N1C[C@@H](O)[C@@H](O)C1` [Example 85], the IC50 turned out to be 224 nM.

`O=C(C#Cc1ccc(-c2ccccc2)c(C(F)(F)F)c1)N1CCN(C2CCS(=O)(=O)C2)CC1` (stereo not shown) [Example 16]: the 50% inhibitory concentration (IC50) stood at 229 nM.

Take `N[C@H]1CCN(C(=O)C#Cc2ccc(-c3ccccc3)c(C(F)(F)F)c2)C1` [Example 100, 1-[(3S)-3-aminopyrrolidin-1-yl]-3-[2-(trifluoromethyl)[1,1′-biphenyl]-4-yl]prop-2-yn-1-one monooxalate]: the IC50 came to 125 nM.

Turning to `O=C(O)CCN1CCN(C(=O)C#Cc2ccc(-c3ccccc3)c(C(F)(F)F)c2)CC1` [Example 91, 3-(4-{3-[2-(trifluoromethyl)[1,1′-biphenyl]-4-yl]prop-2-ynoyl}piperazin-1-yl)propanoic acid monohydrochloride], the IC50 is 600 nM.

On to `NC(=O)CNC(=O)C#Cc1ccc(-c2ccccc2)c(C(F)(F)F)c1` [Example 49], for which the IC50 amounted to 231 nM.

On to `COc1ccc(N(CCO)C(=O)C#Cc2ccc(-c3ccccc3)c(C(F)(F)F)c2)cn1` [Example 54], for which the IC50 is 66 nM.

As to `O=C(C#Cc1ccc(C2CCOCC2)c(C(F)(F)F)c1)N1C[C@@H](O)[C@@H](O)C1` [Example 104], the IC50 was 1790 nM.

Turning to `CN1CCN(C(=O)C#Cc2ccc(-c3ccccc3)cn2)CC1` [Example 4], the IC50 stood at 236 nM.

On to `O=C(C#Cc1ccc(-c2ccc(OC(F)F)cc2)c(C(F)(F)F)c1)N[C@H]1COC[C@H]1O` [Example 80], for which the IC50 was 539 nM.

Regarding `O=C(C#Cc1cnc(-c2ccccc2C(F)(F)F)cn1)N1C[C@@H](O)[C@@H](O)C1` [Example 116], the concentration for half-maximal inhibition (IC50) is 428 nM.

As for `O=C(C#Cc1ccc(-c2ccccc2)c(C(F)(F)F)c1)N1CCOCC1` [Example 21], the half-inhibitory concentration (IC50) amounted to 295 nM.

As for `COc1cc(C#CC(=O)N2C[C@@H](O)[C@@H](O)C2)ccc1-c1ccccc1C(F)(F)F` [Example 111], the IC50 came out at 1050 nM.

Take `Cc1cc(C#CC(=O)N2C[C@@H](O)[C@@H](O)C2)ccc1-c1ccccc1C(F)(F)F` [Example 112]: the IC50 was 887 nM.

On to `O=C(C#Cc1ccc(-c2ccccc2C(F)(F)F)cc1)N1C[C@@H](O)[C@@H](O)C1` [Example 131, 1-[(3R,4S)-3,4-dihydroxypyrrolidin-1-yl]-3-[2′-(trifluoromethyl)[1,1′-biphenyl]-4-yl]prop-2-yn-1-one], for which the IC50 was 578 nM.

As for `O=C(C#Cc1ccc(-c2ccccc2OC(F)(F)F)c(C(F)(F)F)c1)N[C@H]1COC[C@@H]1O` [Example 67], the half-maximal inhibitory concentration (IC50) was determined as 38 nM.

Regarding `O=C(C#Cc1ccc(-c2ccccc2)c(C(F)(F)F)c1)NCCNS(=O)(=O)CCO` [Example 114], the half-maximal inhibitory concentration (IC50) turned out to be 339 nM.

`O=C(C#Cc1ccc(-c2ccccc2)c(C(F)(F)F)c1)N1CCC(O)(CO)CC1` [Example 26]: the half-inhibitory concentration (IC50) came to 299 nM.

With `O=C(C#Cc1ccc(-c2ccccc2)c(C(F)(F)F)c1)N[C@H]1COC[C@@H]1O` [Example 10], the IC50 amounted to 182 nM.

Turning to `CC(C)N(CCO)C(=O)C#Cc1ccc(-c2ccccc2)c(C(F)(F)F)c1` [Example 53], the IC50 was 550 nM.

`NC(=O)[C@@H]1[C@@H](O)CCN1C(=O)C#Cc1ccc(-c2ccccc2)c(C(F)(F)F)c1` [Example 25]: the IC50 is 158 nM.

Regarding `NC(=O)N1CCN(C(=O)C#Cc2ccc(-c3ccccc3)c(C(F)(F)F)c2)CC1` [Example 37], the 50% inhibitory concentration (IC50) came out at 195 nM.

Turning to `O=C(C#Cc1ccc(-c2ccccc2)c(C(F)(F)F)c1)N1CC[C@@H](O)C1` [Example 108], the IC50 was 263 nM.

Take `O=C(C#Cc1ccc(-c2ccc(OC(F)F)cc2)c(C(F)(F)F)c1)N[C@@H]1COC[C@H]1O` [Example 63]: the IC50 worked out at 422 nM.

Consider `Cn1cc(N(CCO)C(=O)C#Cc2ccc(-c3ccccc3)c(C(F)(F)F)c2)cn1` [Example 55], for which the half-inhibitory concentration (IC50) was 83 nM.

Consider `O=C(C#Cc1ccc(-c2cccc(OC(F)F)c2)c(C(F)(F)F)c1)N1C[C@@H](O)[C@@H](O)C1` [Example 64], for which the half-maximal inhibitory concentration (IC50) turned out to be 448 nM.

Regarding `O=C(C#Cc1ccc(-c2ccccc2)c(C(F)(F)F)c1)N[C@@H]1COC[C@@H]1O` [Example 59], the IC50 is 444 nM.

For the molecule `O=C(C#Cc1ccc(-c2ccccc2)c(C(F)(F)F)c1)N1CCN(C2COC2)CC1` [Example 14], the 50% inhibitory concentration (IC50) worked out at 374 nM.
